Each compound was assayed against T1, WD repeat-containing protein 5 (Homo sapiens, UniProt P61964) (assay: Antagonist activity at WDR5 (unknown origin)).

Compound `O=C(O)c1ccc2ccccc2c1-c1c(C(=O)O)ccc2ccccc12` has an IC50 of 6 µM.

The compounds below were run against T1, WD repeat-containing protein 5.

`NC1CCN(c2ccc([N+](=O)[O-])cc2NC(=O)c2ccccc2Cl)C1` (stereo not drawn) and `NC1CCN(c2ccc([N+](=O)[O-])cc2NC(=O)c2ccccc2Cl)CC1` cannot be ordered by Kd: greater than 20 µM for the first, greater than 20 µM for the second.

`CC(=O)Nc1cc([N+](=O)[O-])ccc1N1CCN(C)CC1` and `CN1CCN(c2ccc([N+](=O)[O-])cc2NC(=O)c2ccco2)CC1` cannot be ordered by Kd: greater than 10 µM for the first, greater than 10 µM for the second.

`CN1CCN(c2ccc(N)cc2NC(=O)c2ccccc2Cl)CC1` and `CN1CCN(c2ccc(Br)cc2NC(=O)c2ccccc2Cl)CC1` cannot be ordered by Kd: greater than 10 µM for the first, greater than 10 µM for the second.

Going from `CN1CCN(c2ccc(-c3ccncc3)cc2NC(=O)c2ccccc2Cl)CC1` to `CN1CCN(c2ccc(-c3ccco3)cc2NC(=O)c2ccccc2Cl)CC1`, the Kd rises from 2.2 µM to 3.5 µM (1.6-fold).

Going from `CN1CCN(c2ccc(C(=O)O)cc2NC(=O)c2ccccc2Cl)CC1` to `COC(=O)c1ccc(N2CCN(C)CC2)c(NC(=O)c2ccccc2Cl)c1`, the Kd falls from greater than 10 µM to 6.6 µM.

`O=C(Nc1cc([N+](=O)[O-])ccc1F)c1ccccc1Cl` and `O=C(Nc1cc([N+](=O)[O-])ccc1N1CCNCC1)c1ccccc1Cl` cannot be ordered by Kd: greater than 20 µM for the first, greater than 20 µM for the second.

Going from `Cc1cccc(C(=O)Nc2cc([N+](=O)[O-])ccc2N2CCN(C)CC2)c1Cl` to `CN1CCN(c2ccc([N+](=O)[O-])cc2NC(=O)c2ccc(F)cc2Cl)CC1`, the Kd falls from 1.1 µM to 0.63 µM (1.7-fold). The second binds more tightly here.

Going from `CN1CCN(c2ccc([N+](=O)[O-])cc2NC(=O)c2cccc(Cl)c2)CC1` to `CN1CCN(c2ccc([N+](=O)[O-])cc2NC(=O)c2cccc(O)c2)CC1`, the Kd rises from 1.8 µM to greater than 10 µM. The first binds more tightly here.

Going from `CN1CCN(c2ccc([N+](=O)[O-])cc2NC(=O)c2cccnc2)CC1` to `CN1CCN(c2ccc([N+](=O)[O-])cc2NC(=O)c2ccccc2)CC1`, the Kd falls from greater than 10 µM to 5.8 µM. The second binds more tightly here.

`CN1CCN(c2ccc(C(F)(F)F)cc2NC(=O)c2ccccc2Cl)CC1` and `CN1CCN(c2ccc(C3CC3)cc2NC(=O)c2ccccc2Cl)CC1` cannot be ordered by Kd: greater than 10 µM for the first, greater than 10 µM for the second.

`COc1cc(C(=O)Nc2cc([N+](=O)[O-])ccc2N2CCN(C)CC2)ccc1F` and `Cc1cc(C(=O)Nc2cc([N+](=O)[O-])ccc2N2CCN(C)CC2)ccc1F` are within 1.5-fold of each other in Kd: 0.68 µM for the first, 0.59 µM for the second.

First: CCN1CCN(c2ccc([N+](=O)[O-])cc2NC(=O)c2ccccc2Cl)CC1
Second: CN1CCCN(c2ccc([N+](=O)[O-])cc2NC(=O)c2ccccc2Cl)CC1
The Kd of the first is higher: greater than 20 µM for the first, 7 µM for the second.

`COc1cccc(C(=O)Nc2cc([N+](=O)[O-])ccc2N2CCN(C)CC2)c1` and `Cc1cccc(C(=O)Nc2cc([N+](=O)[O-])ccc2N2CCN(C)CC2)c1` are within 1.5-fold of each other in Kd: 1.4 µM for the first, 1.1 µM for the second.

Compared with `CN1CCN(c2ccc([N+](=O)[O-])cc2NC(=O)c2cccc3ncccc23)CC1`, `CN1CCN(c2ccc([N+](=O)[O-])cc2NC(=O)c2cccc3ccccc23)CC1` is 2.1-fold lower in Kd: 1.5 µM for the first, 0.71 µM for the second.

Going from `CN1CCN(c2ccc([N+](=O)[O-])cc2NC(=O)c2ccc(F)cc2)CC1` to `CN1CCN(c2ccc([N+](=O)[O-])cc2NC(=O)Cc2ccccc2)CC1`, the Kd rises from 3.1 µM to greater than 10 µM. The first binds more tightly here.

First: CN(C)C1CCN(c2ccc([N+](=O)[O-])cc2NC(=O)c2ccccc2Cl)CC1
Second: CN(C)C1CCN(c2ccc([N+](=O)[O-])cc2NC(=O)c2ccccc2Cl)C1 (stereo not drawn)
The Kd of the first is higher: greater than 20 µM for the first, 15.8 µM for the second.

`O=C(Nc1cc([N+](=O)[O-])ccc1N1CCOCC1)c1ccccc1Cl` and `O=C(Nc1cc([N+](=O)[O-])ccc1N1CCCCC1)c1ccccc1Cl` cannot be ordered by Kd: greater than 20 µM for the first, greater than 20 µM for the second.

Going from `CC1CN(c2ccc([N+](=O)[O-])cc2NC(=O)c2ccccc2Cl)CCN1C` (stereo not drawn) to `CN(C)CCN(C)c1ccc([N+](=O)[O-])cc1NC(=O)c1ccccc1Cl`, the Kd rises from 4.7 µM to greater than 20 µM. The first binds more tightly here.

With `CN1CCN(c2ccc([N+](=O)[O-])cc2NC(=O)C2CCCCC2)CC1` the Kd was greater than 10 µM.
